The values below are quoted from earlier work in patent US20110159084A1, “RALOXIFENE PHARMACEUTICAL FORMULATIONS” (DR. REDDY'S LABORATORIES LTD., priority 2008, published 2011).

For series [1] the following is noted: in vivo.
For series [2] the following is noted: 37° C.

With Raloxifene, in series [1], the absolute bioavailability was 2% and the intra-subject pharmacokinetic variability entry was “approximately 30 % coefficient of variation”.
In the case of `Cl.O=C(c1ccc(OCCN2CCCCC2)cc1)c1c(-c2ccc(O)cc2)sc2cc(O)ccc12` [Raloxifene hydrochloride, methanone, [6-hydroxy-2-(4-hydroxyphenyl)benzo[b]thiene-3-yl]-[4-[2-(1-piperidinyl)ethoxy]phenyl]-, hydrochloride], the “solubility in simulated gastric fluid (SGF) USP” value in series [2] (SGF USP) was 3 µg/mL. In series [2] (SIF USP), the “solubility in simulated intestinal fluid (SIF) USP” value is 2 µg/mL. In addition, the absolute bioavailability entry in series [1] was “about 2%”.
